Read-outs that look alike come from different tables or passages of the source. Starred links: 1 amine or outer side, 2 acyl side, 3 side chain; linkers in the order of their positions; H or OH if unused. Positions of bridges follow the written chain, without caps; N, C: chain ends. Non-standard residues stand in square brackets, D forms with d. Residues, ends and D or L forms follow the SMILES beside them. Groups on a side chain read outwards from the residue. *: point of attachment. Trp(7-(3-AcNH-Ph)) = CC(=O)Nc1cccc(-c2cccc3c(C[C@H](N)C(=O)O)c[nH]c23)c1; Me3N+(CH2)2O(CH2)2O(CH2)2CO = C[N+](C)(C)CCOCCOCCC(=O)*; NH(CH2CH2O)2CH2CH2NMe3+ = C[N+](C)(C)CCOCCOCCN*; 2Nal(6-OH) = N[C@@H](Cc1ccc2cc(O)ccc2c1)C(=O)O; Trp(7-Me) = Cc1cccc2c(C[C@H](N)C(=O)O)c[nH]c12; dLys(Me3) = C[N+](C)(C)CCCC[C@@H](N)C(=O)O; C18 diacid = O=C(O)CCCCCCCCCCCCCCCCC(=O)*; 3Pal(5-Me) = Cc1cncc(C[C@H](N)C(=O)O)c1; γGlu = O=C(O)[C@H](CCC(=O)[*:2])N[*:1]; X9 = CN(CC*)C(=O)CCOCCOCC[N+](C)(C)C; AEF = NCCOc1ccc(C[C@H](N)C(=O)O)cc1; 3Pal = N[C@@H](Cc1cccnc1)C(=O)O; Ethyl(2-guanidino) = N=C(N)NCC*; Lys(Me) = CNCCCC[C@H](N)C(=O)O; Pen = CC(C)(S)[C@H](N)C(=O)O; Thp = NC1(C(=O)O)CCOCC1; AEEA = NCCOCCOCC(=O)O; Sar = CNCC(=O)O
Legend:
[1] = disulfide bond, 20-membered ring
[2] = biological target: T1, IL-23-stimulated phosphorylated STAT3 in peripheral blood mononuclear cells (PBMCs) (Homo sapiens, UniProt Q5VWK5); assay: PBMC pSTAT3 Assay; format: cell-based; settings: PBMCs from healthy donors, IL-23 5 ng/mL, 30 minutes, read-out: PBMC pSTAT3 IC50
T1 sequence (Q5VWK5 24-629): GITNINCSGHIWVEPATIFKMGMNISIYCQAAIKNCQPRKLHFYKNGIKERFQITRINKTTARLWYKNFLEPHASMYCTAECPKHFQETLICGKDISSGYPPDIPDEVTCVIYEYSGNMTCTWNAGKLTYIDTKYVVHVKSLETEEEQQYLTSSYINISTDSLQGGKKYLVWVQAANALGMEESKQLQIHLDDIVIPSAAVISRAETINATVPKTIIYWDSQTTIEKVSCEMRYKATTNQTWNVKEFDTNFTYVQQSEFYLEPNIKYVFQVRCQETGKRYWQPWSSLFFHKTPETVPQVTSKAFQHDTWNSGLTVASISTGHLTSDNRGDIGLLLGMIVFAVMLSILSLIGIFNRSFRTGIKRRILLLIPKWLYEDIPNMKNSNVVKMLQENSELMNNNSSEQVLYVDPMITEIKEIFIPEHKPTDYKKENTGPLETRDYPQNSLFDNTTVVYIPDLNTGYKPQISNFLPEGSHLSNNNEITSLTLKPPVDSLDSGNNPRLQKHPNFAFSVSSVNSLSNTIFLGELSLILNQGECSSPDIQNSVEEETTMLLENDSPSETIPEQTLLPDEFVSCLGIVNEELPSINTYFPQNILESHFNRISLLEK
Procedure: Cryopreserved peripheral blood mononuclear cells (PBMCs) from healthy donors were thawed and washed twice in ImmunoCult-XF T cell expansion medium (XF-TCEM) supplemented with CTL anti-aggregate wash. The cells were counted, resuspended at 2-6×10^5 cells per mL XF-TCEM supplemented with penicillin/streptomycin and 100 ng/mL IL-1β (BioLegend, 579404), and cultured in tissue culture flasks coated with anti-CD3 (eBioscience, 16-0037-85 or BD Pharmingen, 555329) at 37° C. in 5% CO2. On day 4 of culture, PBMCs were collected, washed twice in RPMI-1640 supplemented with 0.1% BSA (RPMI-BSA), and incubated in RPMI-BSA in upright tissue culture flasks for ˜4 hours at 37° C. in 5% CO2. Following this ‘starvation,’ a total of 6×10^4 cells in 30 μL RPMI-BSA was transferred into each well of a 384-well plate pre-spotted with peptide or DMSO. The cells were incubated for 30 minutes prior to the addition of IL-23 at a final concentration of 5 ng/mL. The cells were stimulated with cytokine for 30 minutes at 37° C. in 5% CO2, transferred onto ice for 10 minutes, and lysed. Cell lysates were stored at −80° C. until phosphorylated STAT3 was measured using the phospho-STAT panel kit (Meso Scale Discovery, K15202D).

[3] = biological target: T2, IL-23R (Homo sapiens, UniProt Q5VWK5); assay: IL23R Reporter Assay; format: cell-based; settings: HEK293 cells containing IL-23R, IL-12Rβ1 and STAT-inducible luciferase reporter; 10 ng/mL IL-23; 5 h; read-out: IC50
T2 construct: host or cells: HEK293
T2 sequence (Q5VWK5 24-629): T1 sequence (Q5VWK5 24-629)
Procedure: Compounds were serially diluted in 100% (v/v) DMSO) and plated using an Echo acoustic dispenser (Labcyte) into 1536-well non-treated black assay plates (Corning #9146). […] After 5 h at 37° C., 5% CO2, 95% relative humidity, cells were placed at 20° C. and treated with BioGlo reagent (Promega) according to the Manufacturer's instructions. Luminescence was measured on a Pherastar FSX (BMG LabTech).

| Compound | IC50 [2] | IC50 [3] | further results |
| --- | --- | --- | --- |
| MeCO-k(d)-Pen(3)-N-T-7MeW-K(Ac)-Pen(3)-AEF-6OH2Nal-THP-E-N-3Pya-Sar-CONH2 | – | – | ring closure, yield after HPLC ([1]; I2/AcOH, MeCN/H2O, 2.19 mM): 31% |
| CC(=O)NCCCC[C@@H]1NC(=O)[C@H](Cc2c[nH]c3c(C)cccc23)NC(=O)[C@H]([C@@H](C)O)NC(=O)[C@H](CC(N)=O)NC(=O)[C@@H](NC(=O)[C@@H](CCCNC(=N)N)NC(C)=O)C(C)(C)SSC(C)(C)[C@@H](C(=O)N[C@@H](Cc2ccc(OCCN)cc2)C(=O)N[C@@H](Cc2ccc3cc(O)ccc3c2)C(=O)NC2(C(=O)N[C@@H](CCC(=O)O)C(=O)N[C@@H](CC(N)=O)C(=O)N[C@@H](Cc3cccnc3)C(=O)N(C)CC(N)=O)CCOCC2)NC1=O | – | – | ring closure, yield after HPLC ([1]; from Ac-dArg-Pen-Asn-Thr-7MeTrp-Lys(Ac)-Pen-AEF-6OH2Nal-THP-Glu-Asn-3Pya-Sar-NH2): 10.3% |
| CC(=O)NCCCC[C@@H]1NC(=O)[C@H](Cc2c[nH]c3c(C)cccc23)NC(=O)[C@H]([C@@H](C)O)NC(=O)[C@H](CC(N)=O)NC(=O)[C@@H](NC(C)=O)C(C)(C)SSC(C)(C)[C@@H](C(=O)N[C@@H](Cc2ccc(OCCN)cc2)C(=O)N[C@@H](Cc2ccc3cc(O)ccc3c2)C(=O)NC2(C(=O)N[C@@H](CCC(=O)O)C(=O)N[C@@H](CC(N)=O)C(=O)N[C@@H](Cc3cccnc3)C(=O)N(C)CC(=O)N[C@@H](CCCCNC(=O)COCCOCCNC(=O)COCCOCCNC(=O)CC[C@H](NC(=O)CCCCCCCCCCCCCCCCC(=O)O)C(=O)O)C(N)=O)CCOCC2)NC1=O | – | – | ring closure, yield after HPLC ([1]; from Ac-Pen-Asn-Thr-7MeTrp-Lys(Ac)-Pen-AEF-6OH2Nal-THP-Glu-Asn-3Pya-Sar-Lys(PEG2PEG2gEC18OH)-NH2, I2/MeOH, 20% MeCN/H2O, 0.82 mM): 12.9% |
| CC(=O)NCCCC[C@@H]1NC(=O)[C@H](Cc2c[nH]c3c(-c4cccc(NC(C)=O)c4)cccc23)NC(=O)[C@H]([C@@H](C)O)NC(=O)[C@H](CC(N)=O)NC(=O)[C@@H](NC(=O)[C@@H](CCCC[N+](C)(C)C)NC(C)=O)C(C)(C)SSC(C)(C)[C@@H](C(=O)N[C@@H](Cc2ccc(OCCNC(=N)N)cc2)C(=O)N[C@@H](Cc2ccc3cc(O)ccc3c2)C(=O)NC2(C(=O)N[C@@H](CCC(=O)O)C(=O)N[C@@H](CC(N)=O)C(=O)N[C@@H](Cc3cncc(C)c3)C(=O)N(C)CC(N)=O)CCOCC2)NC1=O [compound 11, MeCO-k(Me)3-Pen(3)-N-T-7(3NAcPh)W-K(Ac)-Pen(3)-AEF(G)-6OH2Nal-THP-E-N-5MePyridinAla-Sar-CONH2] (Ac-[dLys(Me3)][Pen]NT[Trp(7-(3-AcNH-Ph))]K(Ac)[Pen]Y(Ethyl(2-guanidino))[2Nal(6-OH)][Thp]EN[3Pal(5-Me)][Sar]-NH2; disulfide 2-7) | < 0.01 nM | < 10 nM | – |
| CC(=O)NCCCC[C@@H]1NC(=O)[C@H](Cc2c[nH]c3c(C)cccc23)NC(=O)[C@H]([C@@H](C)O)NC(=O)[C@@H]2CCCCNCCOc3ccc(cc3)C[C@@H](C(=O)N[C@@H](Cc3ccc4cc(O)ccc4c3)C(=O)NC3(C(=O)N[C@@H](CCCCNC(C)=O)C(=O)N[C@@H](CC(N)=O)C(=O)N[C@@H](Cc4cccnc4)C(=O)N(C)CC(N)=O)CCOCC3)NC(=O)[C@@H](NC1=O)C(C)(C)SSC(C)(C)[C@H](NC(=O)CCCCC[N+](C)(C)C)C(=O)N2 [compound 112, 5cpaCO-Pen(3)-K(5)-T-7MeW-K(Ac)-Pen(3)-AEF(5)-6OH2Nal-THP-K(Ac)-N-3Pya-Sar-CONH2] | < 0.01 nM | < 10 nM | – |
| CC(=O)NCCCC[C@@H]1NC(=O)[C@H](Cc2c[nH]c3c(C)cccc23)NC(=O)[C@H]([C@@H](C)O)NC(=O)[C@H](CC(N)=O)NC(=O)[C@@H](NC(C)=O)C(C)(C)SSC(C)(C)[C@@H](C(=O)N[C@@H](Cc2ccc(OCCN)cc2)C(=O)N[C@@H](Cc2ccc3cc(O)ccc3c2)C(=O)NC2(C(=O)N[C@@H](CCCCNC(=O)COCCOCCNC(=O)COCCOCCNC(=O)CC[C@H](NC(=O)CCCCCCCCCCCCCCCCC(=O)O)C(=O)O)C(=O)N[C@@H](CC(N)=O)C(=O)N[C@@H](Cc3cccnc3)C(=O)N(C)CC(N)=O)CCOCC2)NC1=O [SEQ ID NO: 273, MeCO-Pen(3)-N-T-7MeW-K(Ac)-Pen(3)-AEF-6OH2Nal-THP-K(PEG2PEG2gEC18OH)-N-3Pya-Sar-CONH2] (Ac-[Pen]NT[Trp(7-Me)]K(Ac)[Pen][AEF][2Nal(6-OH)][Thp]K([AEEA-AEEA-γGlu-C18 diacid])N[3Pal][Sar]-NH2; disulfide 1-6) | 0.01 to 0.1 nM | 10 to 100 nM | – |
| CC(=O)NCCCC[C@@H]1NC(=O)[C@H](Cc2c[nH]c3c(-c4cccc(NC(C)=O)c4)cccc23)NC(=O)[C@H]([C@@H](C)O)NC(=O)[C@H](CC(N)=O)NC(=O)[C@@H](NC(=O)[C@@H](CCCNC(=N)N)NC(C)=O)C(C)(C)SSC(C)(C)[C@@H](C(=O)N[C@@H](Cc2ccc(OCCNC(=N)N)cc2)C(=O)N[C@@H](Cc2ccc3cc(O)ccc3c2)C(=O)NC2(C(=O)N[C@@H](CCC(=O)O)C(=O)N[C@@H](CC(N)=O)C(=O)N[C@@H](Cc3cncc(C)c3)C(=O)N(C)CC(N)=O)CCOCC2)NC1=O [compound 15, MeCO-r-Pen(3)-N-T-7(3NAcPh)W-K(Ac)-Pen(3)-AEF(G)-6OH2Nal-THP-E-N-5MePyridinAla-Sar-CONH2] (Ac-[dR][Pen]NT[Trp(7-(3-AcNH-Ph))]K(Ac)[Pen]Y(Ethyl(2-guanidino))[2Nal(6-OH)][Thp]EN[3Pal(5-Me)][Sar]-NH2; disulfide 2-7) | < 0.01 nM | < 10 nM | – |
| CC(=O)N[C@@H]1C(=O)N[C@@H](CC(=O)N(C)C)C(=O)N[C@@H]([C@@H](C)O)C(=O)N[C@@H](Cc2c[nH]c3c(C)cccc23)C(=O)N[C@@H](CCCCN(C)C(C)=O)C(=O)N[C@H](C(=O)N[C@@H](Cc2ccc(OCCN(C)C(=O)CCOCCOCC[N+](C)(C)C)cc2)C(=O)N[C@@H](Cc2ccc3cc(O)ccc3c2)C(=O)NC2(C(=O)N[C@@H](CCCCN(C)C(C)=O)C(=O)N[C@@H](CC(N)=O)C(=O)N[C@@H](Cc3cccnc3)C(=O)N(C)CC(=O)NCCOCCOCC[N+](C)(C)C)CCOCC2)C(C)(C)SSC1(C)C [compound 315, MeCO-Pen(3)-N(NMe2)-T-7MeW-K(NMeAc)-Pen(3)-AEF(NMePEG3a)-6OH2Nal-THP-K(NMeAc)-N-3Pya-Sar-CONH(PEG3a)] (Ac-[Pen]D(NMe2)T[Trp(7-Me)][Lys(Me)](Ac)[Pen]Y(X9)[2Nal(6-OH)][Thp][Lys(Me)](Ac)N[3Pal][Sar]-{NH(CH2CH2O)2CH2CH2NMe3+}; disulfide 1-6) | 0.01 to 0.1 nM | < 10 nM | – |
| CC(=O)NCCCC[C@@H]1NC(=O)[C@H](Cc2c[nH]c3c(-c4cccc(NC(C)=O)c4)cccc23)NC(=O)[C@H]([C@@H](C)O)NC(=O)[C@H](CC(N)=O)NC(=O)[C@@H](NC(=O)CCOCCOCC[N+](C)(C)C)C(C)(C)SSC(C)(C)[C@@H](C(=O)N[C@@H](Cc2ccc(OCCNC(=N)N)cc2)C(=O)N[C@@H](Cc2ccc3cc(O)ccc3c2)C(=O)NC2(C(=O)N[C@@H](CCCCN(C)C(C)=O)C(=O)N[C@@H](CC(N)=O)C(=O)N[C@@H](Cc3cccnc3)C(=O)N(C)CC(N)=O)CCOCC2)NC1=O [compound 34, cPEG3aCO-Pen(3)-N-T-7(3NAcPh)W-K(Ac)-Pen(3)-AEF(G)-6OH2Nal-THP-K(NMeAc)-N-3Pya-Sar-CONH2] ({Me3N+(CH2)2O(CH2)2O(CH2)2CO}-[Pen]NT[Trp(7-(3-AcNH-Ph))]K(Ac)[Pen]Y(Ethyl(2-guanidino))[2Nal(6-OH)][Thp][Lys(Me)](Ac)N[3Pal][Sar]-NH2; disulfide 1-6) | 0.01 to 0.1 nM | < 10 nM | – |
